Measurements taken from patent US12589111B2, “Pt(IV) chemotherapeutic prodrug and controlled release thereof for treatment of tumors” (PEKING UNIVERSITY, priority 2020, dated 2026).

tested on: healthy mice; assay: not given; settings: 3 μmol/kg
Procedure: In order to find the optimal dosage, we evaluated the effect of different doses of Oxaliplatin and prodrug on the health of healthy mice. In the same dosing way as in the treatment, the mice were dosed every third day, and then the body weight curve was recorded. […] Then ICP-MS was used to detect the concentration of the platinum drug in blood, tumor, liver and kidney respectively.
FIGS. 5 e-h show radiotherapy-driven release of Oxaliplatin for tumor treatment (n=6 mice per group). e, Tumor volume in individual mouse. f, Mean volume of tumors. The prodrug was injected intravenously for a total of 4 injections at a dose of 30 μmol/kg. One hour after intravenous injection, the tumor site in the irradiation group was irradiated with 4 Gy X-rays. Tumor volume in each group was measured every two days for 40 days. g, Survival curves of mice. According to the guidelines of Peking University Animal Ethics Committee, mice were sacrificed when the tumor volume reached 1500 mm^3. h, Body weight curves of mice.

In the case of `O=C1[O][Pt]2([NH][C@@H]3CCCC[C@H]3[NH]2)[O]C1=O` [Oxaliplatin], the “side effects from long-term survival and body weight curves” value is reported as “no apparent side effects”.

same assay, conditions: 3 μmol/kg, dosed every third day

For `O=C1[O][Pt]2([NH][C@@H]3CCCC[C@H]3[NH]2)[O]C1=O` [Oxaliplatin], the “body weight of mice” value was “did not reduce the body weight”.

same assay, conditions: 30 μmol/kg, dosed every third day

For `O=C1[O][Pt]2([NH][C@@H]3CCCC[C@H]3[NH]2)[O]C1=O` [Oxaliplatin], the “body weight of mice” value was “lost severe weight”.

same assay, conditions: more than 10 μmol/kg

With `O=C1[O][Pt]2([NH][C@@H]3CCCC[C@H]3[NH]2)[O]C1=O` [Oxaliplatin] the “side effects (weight loss)” value was “significant side effects”.

same assay, conditions: nude mice, intravenous injection

For `O=C1[O][Pt]2([NH][C@@H]3CCCC[C@H]3[NH]2)[O]C1=O` [Oxaliplatin], the maximum tolerated dose was “about 3 μmol/kg”.

tested on: not listed separately; assay: Ligand release of Pt(IV) complex 1 in different solutions after X-ray irradiation; type: physicochemical; settings: 100 μM in complete fetal bovine serum (FBS)
Procedure: 2.5 Detection of Ligand Release of Pt(IV) Complex 1 in Different Solutions
A 10 mM stock solution of Pt(IV) complex 1 was prepared, and diluted to 100 μM in H2O. PBS, 5 mM Tyr, Trp, DMEM and CM (complete medium), FBS solution. After X-ray irradiation, 200 μL of ACN was added to each solution. The mixture was centrifuged, and the supernatant was then collected. The operation was repeated 2 more times, and the final concentration was ⅛ of the original concentration. Ligand release was detected by UPLC-MS and quantified by a standard curve of coumarin.

With `CC(=O)[O][Pt]([Cl])([Cl])[O]C(C)=O.N.N` [Pt(IV) complex 1] the “reaction yield of ligand release” value was “not much different from that in water”.

same assay, conditions: 100 μM; PBS, 5 mM Tyr, 5 mM Trp, DMEM, CM; X-ray, UPLC-MS

For `CC(=O)[O][Pt]([Cl])([Cl])[O]C(C)=O.N.N` [Pt(IV) complex 1], the “release of axial ligands” value was “achieved in all of the above solutions”.

tested on: not listed separately; assay: Determination of release efficiency by UPLC-MS after X-ray irradiation; type: physicochemical; settings: 10 μM in pure water, deoxygenated, 60 Gy X-ray (4 Gy/min, 15 min); released divalent platinum drug by UPLC-MS
Procedure: 2.7 Determination of Release Efficiency by UPLC-MS
Corresponding tetravalent platinum complexes (compounds 1-66) were dissolved in DMSO to obtain tetravalent platinum stock solutions (10 mM), and then diluted to 10 μM with pure water. After deoxygenation, the solution was subjected to 60 Gy X-ray irradiation (4 Gy/min, 15 min). The reaction crude product was analyzed by UPLC-MS, and the released product was determined to be the corresponding divalent platinum drug by UPLC-MS. The concentration of the divalent platinum drug was determined by the external standard curve of the platinum drug, and the release efficiency was calculated.

In order of rising Release efficiency:
1. N.N.O=C(O)CCC(=O)[O][Pt]1([O]C(=O)CCCc2ccc(I)cc2)[O]C(=O)C2(CCC2)C(=O)[O]1 [Compound 32]  64.6%
2. N.N.O=C(O)CCC(=O)[O][Pt]1([O]C(=O)CCC(=O)O)[O]C(=O)C2(CCC2)C(=O)[O]1 [Compound 31]  65.9%
3. CCCCCCCCCCCCCCCCCCNC(=O)[O][Pt]1([O]C(=O)CN(C)C)[O]C(=O)C2(CCC2)C(=O)[O]1.N.N [Compound 42]  66.3%
4. N.N.O=C(O)CCC(=O)[O][Pt]1([O]C(=O)CCCCCN2C(=O)C=CC2=O)[O]C(=O)C2(CCC2)C(=O)[O]1 [Compound 33]  67.7%
5. CN(C)CC(=O)[O][Pt]1([O]C(=O)CCCCCN2C(=O)C=CC2=O)[O]C(=O)C2(CCC2)C(=O)[O]1.N.N [Compound 40]  68.9%
6. CCCCCCCCCCCCCCCCNC(=O)[O][Pt]1([NH2])([NH2])([O]C(C)=O)[O]C(=O)C2(CCC2)C(=O)[O]1 [Compound 26]  69.4%
7. CN(C)CC(=O)[O][Pt]1([O]C(=O)CCCc2ccc(I)cc2)[O]C(=O)C2(CCC2)C(=O)[O]1.N.N [Compound 39]  71.0%
8. CC(=O)[O][Pt]([NH2])([NH2])([Cl])([Cl])[O]C(=O)CN(C)C [Compound 16]  71.9%
9. CN(C)CC(=O)[O][Pt]([NH2])([NH2])([Cl])([Cl])[O]C(=O)CCCCCN1C(=O)C=CC1=O [Compound 18]  73.5%
10. CCCCCCCCCCCCCCCCCCNC(=O)[O][Pt]1([O]C(=O)CCC(=O)O)[O]C(=O)C2(CCC2)C(=O)[O]1.N.N [Compound 35]  73.5%
11. CN(C)CC(=O)[O][Pt]1([O]C(=O)CCCc2ccc(I)cc2)[O]C(=O)C(=O)[O]1.N[C@@H]1CCCC[C@H]1N [Compound 61]  73.7%
12. CCCCCCCCCCCCCCCCCCNC(=O)[O][Pt]([NH2])([NH2])([Cl])([Cl])[O]C(C)=O [Compound 5]  73.9%
13. [NH2][Pt]([NH2])([Cl])([Cl])([O]C(=O)CCCCCN1C(=O)C=CC1=O)[O]C(=O)CCC(=O)O [Compound 11]  73.9%
14. CN(C)CC(=O)[O][Pt]1([O]C(=O)CCCCCN2C(=O)C=CC2=O)[O]C(=O)C(=O)[O]1.N[C@@H]1CCCC[C@H]1N [Compound 62]  74.5%
15. CCCCCCCCCCCCCCCC(=O)[O][Pt]1([O]C(=O)CN(C)C)[O]C(=O)C(=O)[O]1.N[C@@H]1CCCC[C@H]1N [Compound 65]  74.6%
16. N[C@@H]1CCCC[C@H]1N.O=C(O)CCC(=O)[O][Pt]1([O]C(=O)CCCc2ccc(I)cc2)[O]C(=O)C(=O)[O]1 [Compound 54]  75.3%
17. CC(=O)[O][Pt]([NH2])([NH2])([Cl])([Cl])[O]C(=O)CCC(=O)O [Compound 8]  75.5%
18. [NH2][Pt]([NH2])([Cl])([Cl])([O]C(=O)CCC(=O)O)[O]C(=O)CCC(=O)O [Compound 9]  75.6%
19. CCCCCCCCCCCCCCCCNC(=O)[O][Pt]1([O]C(=O)CN(C)C)[O]C(=O)C(=O)[O]1.N[C@@H]1CCCC[C@H]1N [Compound 63]  75.7%
20. CCCCCCCCCCCCCCCCCCNC(=O)[O][Pt]1([O]C(=O)CCC(=O)O)[O]C(=O)C(=O)[O]1.N[C@@H]1CCCC[C@H]1N [Compound 57]  76.3%
21. N[C@@H]1CCCC[C@H]1N.O=C(O)CCC(=O)[O][Pt]1([O]C(=O)CCC(=O)O)[O]C(=O)C(=O)[O]1 [Compound 53]  76.7%
22. [NH2][Pt]([NH2])([Cl])([Cl])([O]C(=O)CCCc1ccc(I)cc1)[O]C(=O)CCC(=O)O [Compound 10]  76.7%
23. CCCCCCCCCCCCCCCCNC(=O)[O][Pt]([NH2])([NH2])([Cl])([Cl])[O]C(=O)CCC(=O)O [Compound 12]  77.4%
24. CCCCCCCCCCCCCCCCCC(=O)[O][Pt]1([O]C(=O)CN(C)C)[O]C(=O)C(=O)[O]1.N[C@@H]1CCCC[C@H]1N [Compound 66]  77.5%
25. CCCCCCCCCCCCCCCCNC(=O)[O][Pt]([NH2])([NH2])([Cl])([Cl])[O]C(=O)CN(C)C [Compound 19]  78.5%
26. CCCCCCCCCCCCCCCCNC(=O)[O][Pt]([NH2])([NH2])([Cl])([Cl])[O]C(C)=O [Compound 4]  79.5%
27. CN(C)CC(=O)[O][Pt]([NH2])([NH2])([Cl])([Cl])[O]C(=O)CCCc1ccc(I)cc1 [Compound 17]  79.6%
28. CCCCCCCCCCCCCCCCNC(=O)[O][Pt]1([O]C(=O)CCC(=O)O)[O]C(=O)C(=O)[O]1.N[C@@H]1CCCC[C@H]1N [Compound 56]  80.2%
29. CC(=O)[O][Pt]([NH2])([NH2])([Cl])([Cl])[O]C(=O)CCCCCN1C(=O)C=CC1=O [Compound 3]  80.3%
30. CC(=O)[O][Pt]1([O]C(=O)CN(C)C)[O]C(=O)C(=O)[O]1.N[C@@H]1CCCC[C@H]1N [Compound 60]  81.3%
31. CCCCCCCCCCCCCCCC(=O)[O][Pt]1([O]C(=O)CCC(=O)O)[O]C(=O)C(=O)[O]1.N[C@@H]1CCCC[C@H]1N [Compound 58]  81.3%
32. N[C@@H]1CCCC[C@H]1N.O=C(O)CCC(=O)[O][Pt]1([O]C(=O)CCCCCN2C(=O)C=CC2=O)[O]C(=O)C(=O)[O]1 [Compound 55]  81.9%
33. CCCCCCCCCCCCCCCCCC(=O)[O][Pt]1([O]C(=O)CCC(=O)O)[O]C(=O)C(=O)[O]1.N[C@@H]1CCCC[C@H]1N [Compound 59]  82.0%
34. CCCCCCCCCCCCCCCCCCNC(=O)[O][Pt]1([O]C(=O)CN(C)C)[O]C(=O)C(=O)[O]1.N[C@@H]1CCCC[C@H]1N [Compound 64]  82.2%
35. CCCCCCCCCCCCCCCCCCNC(=O)[O][Pt]([NH2])([NH2])([Cl])([Cl])[O]C(=O)CCC(=O)O [Compound 13]  82.7%
36. CC(=O)[O][Pt]([NH2])([NH2])([Cl])([Cl])[O]C(C)=O [Compound 1]  83.2%
37. CCCCCCCCCCCCCCCCCCNC(=O)[O][Pt]([NH2])([NH2])([Cl])([Cl])[O]C(=O)CN(C)C [Compound 20]  83.7%
38. CC(=O)[O][Pt]([NH2])([NH2])([Cl])([Cl])[O]C(=O)CCCc1ccc(I)cc1 [Compound 2]  85.7%

tested on: HCT116, HT29, LoVo and Ls513 (human colorectal cancer cell lines); assay: Cytotoxicity to Oxaliplatin-sensitive cell lines; type: cell-based; settings: not given

With `O=C1[O][Pt]2([NH][C@@H]3CCCC[C@H]3[NH]2)[O]C1=O` [Oxaliplatin] the IC50 was “about submicromolar level”.

tested on: not listed separately; assay: Release of the corresponding platinum drug of Pt(IV)-(Suc)2 after γ-ray irradiation; type: physicochemical; settings: deoxygenated, 60Co γ-rays; UPLC-MS, 195Pt NMR
Procedure: 2.6 Detection of the Release of the Corresponding Platinum Drug of Pt(IV)-(Suc)2
Pt(IV)-(Suc)2 was dissolved in 1 mL of deuterium water ([…]), and the mixture was adjusted to a pH of 7 with NaOH. After deoxygenation, the solution was exposed to 40 kGy γ-ray irradiation (^60Co source, 200 Gy/min, 200 min).
Determination of product by UPLC-MS (FIG. 3, b c)
After deoxygenation, the solution was exposed to 1 kGy γ-ray irradiation (^60Co source, 100 Gy/min, 10 min).

In the case of `NC1CCCCC1N.O=C(O)CCC(=O)[O][Pt]1([O]C(=O)CCC(=O)O)[O]C(=O)C(=O)[O]1` [oxaliPt(IV)-(Suc)2], the “product released by γ-ray irradiation” value is reported as “released product was oxaliplatin”.
With `[NH2][Pt]1([NH2])([O]C(=O)CCC(=O)O)([O]C(=O)CCC(=O)O)[O]C(=O)C2(CCC2)C(=O)[O]1` [carboPt(IV)-(Suc)2] the “product released by γ-ray irradiation” value was “release the corresponding Pt(II) drugs”.
For `N.N.O=C(O)CCC(=O)[O][Pt]([Cl])([Cl])[O]C(=O)CCC(=O)O` [cisPt(IV)-(Suc)2], the “product released by γ-ray irradiation” value was “release the corresponding Pt(II) drugs”.
